Starred links: 1 amine or outer side, 2 acyl side, 3 side chain; linkers in the order of their positions; H or OH if unused. Positions of bridges follow the written chain, without caps; N, C: chain ends. Non-standard residues stand in square brackets, D forms with d. Residues, ends and D or L forms follow the SMILES beside them. *: point of attachment. Me3N+CH2CH2(OCH2CH2)4CO = C[N+](C)(C)CCOCCOCCOCCOCCC(=O)*; Me3N+(CH2)2O(CH2)2O(CH2)2CO = C[N+](C)(C)CCOCCOCCC(=O)*; CH2CH2OCH2CH2OCH2CH2NMe3+ = C[N+](C)(C)CCOCCOCC*; Trp(7-Me) = Cc1cccc2c(C[C@H](N)C(=O)O)c[nH]c12; Dab(NMeAc) = CC(=O)N(C)CC[C@H](N)C(=O)O; X1 = CN(CC[C@H](N[*:1])C(=O)[*:2])[*:3]; 2Nal = N[C@@H](Cc1ccc2ccccc2c1)C(=O)O; AEF = NCCOc1ccc(C[C@H](N)C(=O)O)cc1; 3Pal = N[C@@H](Cc1cccnc1)C(=O)O; Lys(Me) = CNCCCC[C@H](N)C(=O)O; Pen = CC(C)(S)[C@H](N)C(=O)O; X37 = C[N+]1(C)CCN(CC*)CC1; X57 = C[N+]1(C)CCC(CC*)CC1; Thp = NC1(C(=O)O)CCOCC1; X17 = C[N+]1(CC*)CCOCC1; Sar = CNCC(=O)O
Assays:
[1] = target: T1, IL-23R (Homo sapiens, UniProt Q5VWK5); assay: IL23R Reporter Assay; type: cell-based; conditions: HEK293 cells containing IL-23R, IL-12RP1 and STAT-inducible firefly luciferase reporter; 10 ng/mL IL-23 (EC90); 5 h at 37° C.; read-out: IL23R Reporter Assay
T1 construct: host or cells: HEK293
T1 sequence (Q5VWK5 24-629): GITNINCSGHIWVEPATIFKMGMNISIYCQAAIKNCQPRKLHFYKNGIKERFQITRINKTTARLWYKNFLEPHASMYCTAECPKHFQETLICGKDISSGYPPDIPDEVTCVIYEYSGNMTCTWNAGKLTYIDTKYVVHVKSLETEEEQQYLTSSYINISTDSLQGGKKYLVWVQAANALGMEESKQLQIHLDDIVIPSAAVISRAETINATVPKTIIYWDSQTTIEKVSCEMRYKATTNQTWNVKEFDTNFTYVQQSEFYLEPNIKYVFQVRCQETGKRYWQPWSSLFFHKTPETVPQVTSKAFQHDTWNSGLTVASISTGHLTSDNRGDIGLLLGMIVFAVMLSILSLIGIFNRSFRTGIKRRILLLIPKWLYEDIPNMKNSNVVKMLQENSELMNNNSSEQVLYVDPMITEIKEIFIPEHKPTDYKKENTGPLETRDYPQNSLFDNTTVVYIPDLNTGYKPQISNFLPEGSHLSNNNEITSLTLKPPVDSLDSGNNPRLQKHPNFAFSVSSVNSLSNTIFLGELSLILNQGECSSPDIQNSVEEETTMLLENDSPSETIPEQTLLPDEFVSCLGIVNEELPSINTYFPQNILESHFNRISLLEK

[2] = Exposed Polar Surface Area (EPSA); type: physicochemical; conditions: SFC on Chirex 3014 column; sample 1 mM DMSO stock; read-out: EPSA
Outline: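 Polarity measured by SFC on a Chirex 3014 column (35 °C, 4 mL/min) with methanol/ammonium formate in CO2 as gradient eluent. Retention times were normalised to EPSA (Å^2) against eight reference compounds.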

| SMILES | IC50 [1] | EPSA [2] |
| --- | --- | --- |
| CC(=O)N(C)CC[C@H](NC(=O)C1(NC(=O)[C@H](Cc2ccc3ccccc3c2)NC(=O)[C@H](Cc2ccc(OCCN)cc2)NC(=O)[C@H]2NC(=O)[C@H](CCC(=O)N(C)C)NC(=O)[C@H](Cc3c[nH]c4c(C)cccc34)NC(=O)[C@H]([C@@H](C)O)NC(=O)[C@H](CC(=O)N(C)C)NC(=O)[C@@H](NC(=O)CCOCCOCCOCCOCC[N+](C)(C)C)C(C)(C)SSC2(C)C)CCOCC1)C(=O)N[C@@H](CC(N)=O)C(=O)N[C@@H](Cc1cccnc1)C(=O)N(C)CC(=O)N(C)C [compound 173, cPEG5aCO-Pen(3)-N(N(Me)2)-T-7MeW-Q(N(Me)2)-Pen(3)-AEF-2Nal-THP-Dab(NMeAc)-N-3Pya-Sar-CON(Me)2] ({Me3N+CH2CH2(OCH2CH2)4CO}-[Pen]D(NMe2)T[Trp(7-Me)]E(NMe2)[Pen][AEF][2Nal][Thp][Dab(NMeAc)]N[3Pal][Sar]-NMe2; disulfide 1-6 (inferred)) | 3.1 nM | 144 A^2 |
| CC(=O)N[C@@H]1C(=O)N[C@@H](CC(=O)N(C)C)C(=O)N[C@@H]([C@@H](C)O)C(=O)N[C@@H](Cc2c[nH]c3c(C)cccc23)C(=O)N[C@@H](CCN(C)C(=O)CCOCCOCC[N+](C)(C)C)C(=O)N[C@H](C(=O)N[C@@H](Cc2ccc(OCCN)cc2)C(=O)N[C@@H](Cc2ccc3ccccc3c2)C(=O)NC2(C(=O)N[C@@H](CCN(C)C(=O)CCOCCOCC[N+](C)(C)C)C(=O)N[C@@H](CC(N)=O)C(=O)N[C@@H](Cc3cccnc3)C(=O)N(C)CC(=O)N(C)C)CCOCC2)C(C)(C)SSC1(C)C [compound 175, MeCO-Pen(3)-N(N(Me)2)-T-7MeW-Dab(NMecPEG3a)-Pen(3)-AEF-2Nal-THP-Dab(NMecPEG3a)-N-3Pya-Sar-CON(Me)2] (Ac-[Pen]D(NMe2)T[Trp(7-Me)][X1](Me3N+(CH2)2O(CH2)2O(CH2)2CO)[Pen][AEF][2Nal][Thp][X1](Me3N+(CH2)2O(CH2)2O(CH2)2CO)N[3Pal][Sar]-NMe2; disulfide 1-6 (inferred)) | 6.3 nM | 140 A^2 |
| CC(=O)N(C)CCCC[C@@H]1NC(=O)[C@H](Cc2c[nH]c3c(C)cccc23)NC(=O)[C@H]([C@@H](C)O)NC(=O)[C@H](CC(=O)N(C)C)NC(=O)[C@@H](NC(=O)CCOCCOCC[N+](C)(C)C)C(C)(C)SSC(C)(C)[C@@H](C(=O)N[C@@H](Cc2ccc(OCCN)cc2)C(=O)N[C@@H](Cc2ccc3ccccc3c2)C(=O)NC2(C(=O)N[C@@H](CCN(C)C(C)=O)C(=O)N[C@@H](CC(N)=O)C(=O)N[C@@H](Cc3cccnc3)C(=O)N(C)CC(=O)N(C)C)CCOCC2)NC1=O [compound 177, cPEG3aCO-Pen(3)-N(N(Me)2)-T-7MeW-K(NMeAc)-Pen(3)-AEF-2Nal-THP-Dab(NMeAc)-N-3Pya-Sar-CON(Me)2] ({Me3N+(CH2)2O(CH2)2O(CH2)2CO}-[Pen]D(NMe2)T[Trp(7-Me)][Lys(Me)](Ac)[Pen][AEF][2Nal][Thp][Dab(NMeAc)]N[3Pal][Sar]-NMe2; disulfide 1-6) | 2 nM | 149 A^2 |
| CC(=O)N(C)CC[C@H](NC(=O)C1(NC(=O)[C@H](Cc2ccc3ccccc3c2)NC(=O)[C@H](Cc2ccc(OCCN)cc2)NC(=O)[C@H]2NC(=O)[C@H](CCC(=O)N(C)C)NC(=O)[C@H](Cc3c[nH]c4c(C)cccc34)NC(=O)[C@H]([C@@H](C)O)NC(=O)[C@H](CC(N)=O)NC(=O)[C@@H](NC(=O)CCOCCOCC[N+](C)(C)C)C(C)(C)SSC2(C)C)CCOCC1)C(=O)N[C@@H](CC(N)=O)C(=O)N[C@@H](Cc1cccnc1)C(=O)N(C)CC(N)=O [compound 178, cPEG3aCO-Pen(3)-N-T-7MeW-Q(N(Me)2)-Pen(3)-AEF-2Nal-THP-Dab(NMeAc)-N-3Pya-Sar-CONH2] ({Me3N+(CH2)2O(CH2)2O(CH2)2CO}-[Pen]NT[Trp(7-Me)]E(NMe2)[Pen][AEF][2Nal][Thp][Dab(NMeAc)]N[3Pal][Sar]-NH2; disulfide 1-6) | 2 nM | 154 A^2 |
| CC(=O)N[C@@H]1C(=O)N[C@@H](CC(=O)N(C)C)C(=O)N[C@@H]([C@@H](C)O)C(=O)N[C@@H](Cc2c[nH]c3c(C)cccc23)C(=O)N[C@@H](CCCCN(C)C(C)=O)C(=O)N[C@H](C(=O)N[C@@H](Cc2ccc(OCCOCCOCC[N+](C)(C)C)cc2)C(=O)N[C@@H](Cc2ccc3ccccc3c2)C(=O)NC2(C(=O)N[C@@H](CCCCN(C)C(C)=O)C(=O)N[C@@H](CC(N)=O)C(=O)N[C@@H](Cc3cccnc3)C(=O)N(C)CC(=O)N(C)C)CCOCC2)C(C)(C)SSC1(C)C [compound 183, MeCO-Pen(3)-N(N(Me)2)-T-7MeW-K(NMeAc)-Pen(3)-APEG3F-2Nal-THP-K(NMeAc)-N-3Pya-Sar-CON(Me)2] (Ac-[Pen]D(NMe2)T[Trp(7-Me)][Lys(Me)](Ac)[Pen]Y(CH2CH2OCH2CH2OCH2CH2NMe3+)[2Nal][Thp][Lys(Me)](Ac)N[3Pal][Sar]-NMe2; disulfide 1-6) | 1.8 nM | 133 A^2 |
| CC(=O)N(C)CCCC[C@@H]1NC(=O)[C@H](Cc2c[nH]c3c(C)cccc23)NC(=O)[C@H]([C@@H](C)O)NC(=O)[C@H](CC(=O)N(C)C)NC(=O)[C@@H](NC(=O)CCOCCOCC[N+](C)(C)C)C(C)(C)SSC(C)(C)[C@@H](C(=O)N[C@@H](Cc2ccc(OCCOCCOCC[N+](C)(C)C)cc2)C(=O)N[C@@H](Cc2ccc3ccccc3c2)C(=O)NC2(C(=O)N[C@@H](CCC(=O)O)C(=O)N[C@@H](CC(N)=O)C(=O)N[C@@H](Cc3cccnc3)C(=O)N(C)CC(=O)N(C)C)CCOCC2)NC1=O [compound 184, cPEG3aCO-Pen(3)-N(N(Me)2)-T-7MeW-K(NMeAc)-Pen(3)-APEG3F-2Nal-THP-E-N-3Pya-Sar-CON(Me)2] ({Me3N+(CH2)2O(CH2)2O(CH2)2CO}-[Pen]D(NMe2)T[Trp(7-Me)][Lys(Me)](Ac)[Pen]Y(CH2CH2OCH2CH2OCH2CH2NMe3+)[2Nal][Thp]EN[3Pal][Sar]-NMe2; disulfide 1-6) | 3.4 nM | 142 A^2 |
| CC(=O)N(C)CCCC[C@@H]1NC(=O)[C@H](Cc2c[nH]c3c(C)cccc23)NC(=O)[C@H]([C@@H](C)O)NC(=O)[C@H](CC(=O)N(C)C)NC(=O)[C@@H](NC(=O)CCOCCOCC[N+](C)(C)C)C(C)(C)SSC(C)(C)[C@@H](C(=O)N[C@@H](Cc2ccc(OCCC3CC[N+](C)(C)CC3)cc2)C(=O)N[C@@H](Cc2ccc3ccccc3c2)C(=O)NC2(C(=O)N[C@@H](CCCCN(C)C(C)=O)C(=O)N[C@@H](CC(N)=O)C(=O)N[C@@H](Cc3cccnc3)C(=O)N(C)CC(=O)N(C)C)CCOCC2)NC1=O [compound 187, cPEG3aCO-Pen(3)-N(N(Me)2)-T-7MeW-K(NMeAc)-Pen(3)-4DMPEF-2Nal-THP-K(NMeAc)-N-3Pya-Sar-CON(Me)2] ({Me3N+(CH2)2O(CH2)2O(CH2)2CO}-[Pen]D(NMe2)T[Trp(7-Me)][Lys(Me)](Ac)[Pen]Y(X57)[2Nal][Thp][Lys(Me)](Ac)N[3Pal][Sar]-NMe2; disulfide 1-6) | 86 nM | 137 A^2 |
| CC(=O)N(C)CCCC[C@@H]1NC(=O)[C@H](Cc2c[nH]c3c(C)cccc23)NC(=O)[C@H]([C@@H](C)O)NC(=O)[C@H](CC(=O)N(C)C)NC(=O)[C@@H](NC(=O)CCOCCOCC[N+](C)(C)C)C(C)(C)SSC(C)(C)[C@@H](C(=O)N[C@@H](Cc2ccc(OCCN3CC[N+](C)(C)CC3)cc2)C(=O)N[C@@H](Cc2ccc3ccccc3c2)C(=O)NC2(C(=O)N[C@@H](CCCCN(C)C(C)=O)C(=O)N[C@@H](CC(N)=O)C(=O)N[C@@H](Cc3cccnc3)C(=O)N(C)CC(=O)N(C)C)CCOCC2)NC1=O [compound 193, cPEG3aCO-Pen(3)-N(N(Me)2)-T-7MeW-K(NMeAc)-Pen(3)-4DMPzEF-2Nal-THP-K(NMeAc)-N-3Pya-Sar-CON(Me)2] ({Me3N+(CH2)2O(CH2)2O(CH2)2CO}-[Pen]D(NMe2)T[Trp(7-Me)][Lys(Me)](Ac)[Pen]Y(X37)[2Nal][Thp][Lys(Me)](Ac)N[3Pal][Sar]-NMe2; disulfide 1-6) | 40 nM | 135 A^2 |
| CC(=O)N(C)CCCC[C@@H]1NC(=O)[C@H](Cc2c[nH]c3c(C)cccc23)NC(=O)[C@H]([C@@H](C)O)NC(=O)[C@H](CC(=O)N(C)C)NC(=O)[C@@H](NC(=O)CCOCCOCC[N+](C)(C)C)C(C)(C)SSC(C)(C)[C@@H](C(=O)N[C@@H](Cc2ccc(OCC[N+]3(C)CCOCC3)cc2)C(=O)N[C@@H](Cc2ccc3ccccc3c2)C(=O)NC2(C(=O)N[C@@H](CCCCN(C)C(C)=O)C(=O)N[C@@H](CC(N)=O)C(=O)N[C@@H](Cc3cccnc3)C(=O)N(C)CC(=O)N(C)C)CCOCC2)NC1=O [compound 198, cPEG3aCO-Pen(3)-N(N(Me)2)-T-7MeW-K(NMeac)-Pen(3)-MMoEF-2Nal-THP-K(NMeAc)-N-3Pya-Sar-CON(Me)2] ({Me3N+(CH2)2O(CH2)2O(CH2)2CO}-[Pen]D(NMe2)T[Trp(7-Me)][Lys(Me)](Ac)[Pen]Y(X17)[2Nal][Thp][Lys(Me)](Ac)N[3Pal][Sar]-NMe2; disulfide 1-6) | 3.1 nM | 144 A^2 |

Source: US20260022143A1, “Cyclic Peptide Inhibitors of IL-23” (JANSSEN PHARMACEUTICA NV, priority 2022, published 2026)
